Source: patent US8865220B2, “Method for controlled release of parathyroid hormone from encapsulated poly(lactic-glycolic)acid microspheres” (Kaohsiung Medical University, priority 2010, dated 2014)
“And” between values parts separate entries of the source, which are not always exact repeats. Identical values can stand only once. Like-named read-outs stand apart in the source and are kept apart here.

Tests used:
[1] = oral administration, in comparison to subcutaneous administration; cited from earlier work
[2] = test system: papain induced osteoarthritis; conditions: injection once in three days for 5 weeks; cited from earlier work
[3] = pulmonary route, cited from earlier work
MC3T3-E1 cells = assay: Bioactivity of released PTH(1-34): intracellular cAMP; format: cell-based; conditions: PTH(1-34) released from microspheres at 1 and 3 days; 6 hrs incubation
Protocol: Activity of controlled released PTH(1-34) was determined by measuring cAMP contents in cells treated with released PTH(1-34). For these experiments, the MC3T3-E1 was cultured in α-MEM supplemented with 10% fetal bovine serum and […] ascorbic acid. The cells were seeded onto 24-well plates at a density of 50,000 cells/well. After 6 hrs of incubation with released PTH (1-34) from microspheres, the cells were lysed directly in the medium by adding 0.1 N HCl and 0.5 mM isobutylmethylxanthine to protect the produced cAMP. Intracellular cAMP was measured using a commercially available ELISA kit (Endogen/Pierce, Rockford, Ill.) following the manufacturer's instructions.

[4] = test system: papain-induced osteoarthritis, articular cartilage; assay: Papain-induced osteoarthritis, histology and immunohistochemistry of articular cartilage; format: in vivo, rat
Protocol: The animal experiments were approved by the Animal Care and Use Committee of Kaohsiung Medical University. Fifty-four 12-week-old male Sprague-Dawley rats (250-300 gm) were purchased from BioLASCO Taiwan and housed under standard laboratory conditions (temperature 24° C., 12-hour light-dark cycle) with food and water ad libitum. The animals were acclimatized to the laboratory environment for 1 week before the experiments.
Each left knee, which served as the contralateral control joint, received the vehicle without PTH treatment or OA-induction. The right knees were the study joints. Rats were divided into five groups: Non-OA+PTH [PTH(1-34) treatment without OA-induction] (n=6), Non-OA+PTH/PLGA [PTH/PLGA microspheres treatment without OA-induction] (n=6), OA [OA-induction without PTH(1-34) treatment] (n=6), OA+PTH [PTH(1-34) treatment followed by OA-induction] (n=6), and OA+PTH/PLGA [PTH/PLGA microspheres treatment followed by OA-induction] (n=6). OA was induced in the right knees of rats in the OA and OA+PTH groups with intra-articular injections of 20 μl of 4% papain solution and 20 μl of 0.03 M cystein. The injections were given with a 26-gauge needle via the patellar tendon on days 1, 4, and 7 of the experiment (13). In the OA+PTH group, after OA-induction, the right knees were injected intra-articularly with 40 μl of 10 nM PTH(1-34) every three days until sacrifice. In the PTH group, the same PTH(1-34) treatment was performed but without OA-induction. In the OA+PTH/PLGA group, after OA-induction, the right knees were injected intra-articularly with 0.4 mg of PTH/PLGA microspheres at 1st and 15th day. The rats were sacrificed with an overdose of CO2-inhaled at the same time point at 5 weeks.
After sacrifice, the knees of each rat were harvested, and the tibia plateaus with articular cartilage were collected and fixed with 10% neutral buffered formalin prior to histological preparation. The samples were then decalcified in 10% formic acid/PBS. The decalcified tibia articular samples were paraffin embedded, and 5 μm microsections in the coronary plane were prepared. GAG was stained with Safranin-O-Fast-Green (1% Safranin-O counter-stained with 0.75% hematoxylin and then 1% fast green) (Sigma, St. Louis, Mo.). Localized type II Collagen and type X collagen were immuno-stained.
GAG was stained red by Safarinin-O, and the total and red-stained areas in the articular cartilage of each proximal tibia were measured using the Image-Pro plus 5.0 software (FIG. 6C) (Media Cybernetics Inc. MD, USA). The ratio of red stained area to total area (red/total) in each group was calculated.
The tibia articular sections were re-hydrated, and the endogenous peroxidase in tissues was blocked with 3% hydrogen peroxide. Samples were digested by enzymes for epitope retrieval before incubation with primary antibodies. The method for enzyme digestion was modified from a previous report (20). The optimal condition for the enzyme digestion for type II collagen immuno-staining was a mixture of 2.5% hyluronidase and 1 mg/ml pronase in PBS (pH 7.4) (Sigma, St. Louis, Mo.) at 37° C. for 1 hour. For type X collagen immuno-staining the optimal condition was 0.1 U/ml chondroitinase ABC (Sigma, St. Louis, Mo.) for 1 hour and pepsin 1 mg/ml in tris-HCl (pH 3.0) at 37° C. for 15 minutes. […]

[5] = Non-OA study joints (no OA-induction)
[6] = OA-induced study joints, intra-articular, 5 weeks

Compound: CC[C@H](C)[C@H](NC(=O)[C@H](CCC(=O)O)NC(=O)[C@H](CO)NC(=O)[C@@H](NC(=O)[C@@H](N)CO)C(C)C)C(=O)N[C@@H](CCC(N)=O)C(=O)N[C@@H](CC(C)C)C(=O)N[C@@H](CCSC)C(=O)N[C@@H](Cc1cnc[nH]1)C(=O)N[C@@H](CC(N)=O)C(=O)N[C@@H](CC(C)C)C(=O)NCC(=O)N[C@@H](CCCCN)C(=O)N[C@@H](Cc1cnc[nH]1)C(=O)N[C@@H](CC(C)C)C(=O)N[C@@H](CC(N)=O)C(=O)N[C@@H](CO)C(=O)N[C@@H](CCSC)C(=O)N[C@@H](CCC(=O)O)C(=O)N[C@@H](CCCN=C(N)N)C(=O)N[C@H](C(=O)N[C@@H](CCC(=O)O)C(=O)N[C@@H](Cc1c[nH]c2ccccc12)C(=O)N[C@@H](CC(C)C)C(=O)N[C@@H](CCCN=C(N)N)C(=O)N[C@@H](CCCCN)C(=O)N[C@@H](CCCCN)C(=O)N[C@@H](CC(C)C)C(=O)N[C@@H](CCC(N)=O)C(=O)N[C@@H](CC(=O)O)C(=O)N[C@H](C(=O)N[C@@H](Cc1cnc[nH]1)C(=O)N[C@@H](CC(N)=O)C(=O)N[C@@H](Cc1ccccc1)C(=O)O)C(C)C)C(C)C [PTH(1-34)]
- bioavailability [1]: 5% and 2.1%
- effective dose [2]: 10^−8 M
- bioavailability ([3]; inhalation of dry powders): 34%
- bioavailability ([3]; intratracheal instillation): 40%
- cAMP production (MC3T3-E1 cells): increased production of cAMP
- Safranin O-stained area to total area (red:total, GAG) vs contralateral control [4, 5]: not significantly different
- type II collagen stained area to total area vs contralateral control [4, 5]: not significantly different
- type X collagen-stained chondrocytes vs OA group ([4]; OA-induced study joints, after 5 weeks of treatment): less positive stained cells
- Safranin O-stained area to total area (red:total, GAG) vs contralateral control [4, 6]: not significantly different from the contralateral control cartilage
- type II collagen stained area to total area (brown:total) vs contralateral control [4, 6]: not significantly different from the contralateral control cartilage
